Laboratory results published in patent US9707242B2, “Use of 25-hydroxyvitamin D3 to enhance executive functions” (DSM IP ASSETS B.V., priority 2013, dated 2017).

Legend:
frail elderly = test: Example 2: double-blind, randomized, placebo-controlled trial in the frail elderly; format: in vivo, human
Description: The design is a parallel group, randomized, placebo-controlled, double-blind study with three different application groups. Each group has an appropriate number of participants (e.g., 20 participants). Eligibility is defined as being 65 years or older and being frail or pre-frail. Frailty is defined as having unintentional weight loss, weakness, self-reported exhaustion, slow walking speed, and/or low physical activity (see Fried L P, et al. Frailty in older adults: evidence for a phenotype. J Gerontol A Biol Sci Med Sci. […] A participant is classified as pre-frail when one or two of the aforementioned criteria are met, while frail is classified when three or more criteria are present. […] The duration of supplementation is 6 months (180 days). […] Double-blind randomization is carried out by means of a label code associated with a specific participant ID number, whose meaning is known only to the supplier. Participants are allocated randomly to these numbers. […] For baseline (Day 0) the following tests are performed: […] […] Executive functioning test batteries include the following standard tests of executive functioning: Trail Making Tests A and B (to determine the ratio of TMT-B/TMT-A), Stroop Colour-Word Test, including determining the Stroop ratio, calculated by Stroop card 3/((Stroop card 1+Stroop card 2)/2) and animal fluency test. […]

healthy adults under 65 = system: healthy adults under 65; design: species or system human; conditions: in vivo
Description: The design is a parallel group, randomized, placebo-controlled, double-blind study similar to that of Example 2, above, except that the participants are healthy adults under 65. The duration of supplementation is 6 months (180 days). Group size is chosen so that a statistically significant difference, if present, may be observed between placebo and test groups.
Participants are randomly allocated to either the 25-OH D3 group, Vitamin D3 group, (Vitamin D3+25-OH D3) group or placebo group. Double-blind randomization is carried out by means of a label code associated with a specific participant ID number, whose meaning is known only to the supplier. Participants are allocated randomly to these numbers.
For baseline (Day 0) the following tests are performed: Physical examination, vital signs (blood pressure, heart rate), demographics, clinical laboratory, FFQ, serum: 25-OH D3, 24,25(OH)2D, 1,25(OH)2D3, Vitamin D3, calcium, albumin, creatinine, fasting glucose, PTH; urine: calcium, creatinine; executive function tests (see below). […]
Executive functioning test batteries include the following standard tests of executive functioning: Trail Making Tests A and B (to determine the ratio of TMT-B/TMT-A), Stroop Colour-Word Test, including determining the Stroop ratio, calculated by Stroop card 3/((Stroop card 1+Stroop card 2)/2) and animal fluency test. […]

- 25-OH D3 serum level (frail elderly; in vivo): significantly increases
- 25-OH D serum level (healthy adults under 65): significantly increases
SMILES: C=C1CC[C@H](O)C/C1=C/C=C1\CCC[C@]2(C)[C@@H]([C@H](C)CCCC(C)(C)O)CC[C@@H]12 [25(OH)D, 25-hydroxyvitamin D3]
- improvement of executive functioning (frail elderly; frail elderly, 6 months, in comparison to Vitamin D3 and placebo): significantly higher effect
